Measurements from patent US20220289794A1, “SYNTHETIC ANTIMICROBIAL PEPTIDES” (priority 2019, published 2022).
≈ marks a conversion by molar mass, not a printed value. Like-named read-outs stand apart in the source and are kept apart here. Non-standard residues stand in square brackets, D forms with d. Residues, ends and D or L forms follow the SMILES beside them. Dip = N[C@H](C(=O)O)C(c1ccccc1)c1ccccc1; 2Nal = N[C@@H](Cc1ccc2ccccc2c1)C(=O)O

Legend:
[1] = test system: Escherichia coli (E. Coli, ATCC 25922); assay: microbe, parasite or virus in culture; details: ATCC25922, 24 h
[2] = test system: Pseudomonas aeruginosa (PSA, ATCC 27883); assay: microbe, parasite or virus in culture; details: ATCC27883, 24 h
[3] = test system: Klebsiella pneumoniae (KPC, ATCC BAA-1705); assay: microbe, parasite or virus in culture; details: ATCCBAA1705, 24 h
[4] = test system: Methicillin-resistant Staphylococcus aureus MRSA (ATCC BAA-1556); assay: microbe, parasite or virus in culture; details: ATCCBAA1556|MRSA, 24 h
[5] = test system: Enterococcus faecium ATCC 700221; details: E. faecium ATCC 700221
human red blood cells = test system: human red blood cells; set-up: unit not given beside the values
[6] = test system: P. aeruginosa (ATCC BAA-1744); assay: Broad-spectrum activity against Gram-Negative bacteria (MIC); assay type: cell-based; details: Table 16, Gram-negative panel
[7] = test system: Streptococcus pneumoniae ATCC 51938; details: S. pneumoniae ATCC 51938
[8] = test system: Streptococcus pneumoniae ATCC 49619; details: S. pneumoniae ATCC 49619
[9] = test system: A. baumannii (ATCC BAA-1605); assay: Broad-spectrum activity against Gram-Negative bacteria (MIC); assay type: cell-based; details: Table 16, Gram-negative panel
[10] = test system: Klebsiella pneumoniae (ATCC BAA-1705); details: Table 16, Gram-negative panel
[11] = test system: Enterococcus faecalis ATCC 29212; details: E. faecalis ATCC 29212
E. coli (ATCC BAA-2452) = assay: Broad-spectrum activity against Gram-Negative bacteria (MIC); assay type: cell-based; details: Table 16, Gram-negative panel
[12] = test system: Enterococcus faecalis ATCC 51575; details: E. faecalis ATCC 51575
[13] = test system: P. aeruginosa (ATCC 10145); assay: Broad-spectrum activity against Gram-Negative bacteria (MIC); assay type: cell-based; details: Table 16, Gram-negative panel
S. aureus ATCC 29213 = details: ATCC 29213
B. cereus (ATCC-13061) = assay: Broad-spectrum activity against Gram-Positive bacteria (MIC); assay type: cell-based; set-up: unit not given here
[14] = test system: Pseudomonas aeruginosa (ATCC 27883); details: ATCC 27883
[15] = test system: Methicillin-resistant Staphylococcus aureus MRSA (ATCC BAA-1556); details: ATCC BAA-1556
[16] = test system: Escherichia coli (ATCC 25922); details: ATCC 25922
B. subtilis (ATCC-6633) = assay: Broad-spectrum activity against Gram-Positive bacteria (MIC); assay type: cell-based; set-up: unit not given here
[17] = test system: Enterococcus faecium ATCC 27270; details: E. faecium ATCC 27270
[18] = test system: Klebsiella pneumoniae ATCC 13883; details: Table 16, Gram-negative panel

Row | HC50 (human red blood cells) | MIC P. aeruginosa (ATCC BAA-1744) [6] [µg/mL] | MIC A. baumannii (ATCC BAA-1605) [9] [µg/mL] | MIC K. pneumonia (ATCC BAA-1705) [10] [µg/mL] | MIC E. coli (ATCC BAA-2452) (E. coli (ATCC BAA-2452)) [µg/mL] | MIC P. aeruginosa (ATCC 10145) [13] [µg/mL] | MIC S. aureus ATCC 29213 (S. aureus ATCC 29213) [µg/mL] | MIC P. aeruginosa ATCC 27883 [14] [µg/mL] | MIC MRSA ATCC BAA-1556 [15] [µg/mL] | MIC E. coli ATCC 25922 [16] [µg/mL] | MIC K. pneumonia (ATCC 13883) [18] [µg/mL] | SMILES | Broad-spectrum activity E. faecium (ATCC 700221) [5] | Broad-spectrum activity S. pneumoniae (ATCC 51938) [7] | Broad-spectrum activity S. pneumoniae (ATCC 49619) [8] | Broad-spectrum activity E. faecalis (ATCC 29212) [11] | Broad-spectrum activity E. faecalis (ATCC 51575) [12] | Broad-spectrum activity B. cereus (ATCC-13061) (B. cereus (ATCC-13061)) | Broad-spectrum activity B. subtilis (ATCC-6633) (B. subtilis (ATCC-6633)) | Broad-spectrum activity E. faecium (ATCC 27270) [17] | further results
1 |  |  |  |  |  |  |  |  |  |  |  | Cc1ncc([N+](=O)[O-])n1CCO [Metronidazole] |  |  |  |  |  |  |  |  | MIC ([1]; read-out: Escherichia coli (ATCC 25922) MIC, Table 28, IFX-031, antibiotics alone and PHY-MIX (1:1 w/w)): > 32 µg/mL; MIC ([1]; read-out: Escherichia coli (ATCC 25922) MIC, Table 29, [R6W4] (IFX-318), antibiotics alone and PHY-MIX (1:1 w/w)): > 32 µg/mL; MIC ([1]; read-out: Escherichia coli (ATCC 25922) MIC, Table 30, [R5W4K] (IFX-315), antibiotics alone and PHY-MIX (1:1 w/w)): > 32 µg/mL; MIC ([1]; read-out: Escherichia coli (ATCC 25922) MIC, Table 31, [R5W4] (IFX-301), antibiotics alone and PHY-MIX (1:1 w/w)): > 32 µg/mL; MIC ([2]; read-out: Pseudomonas aeruginosa (ATCC 27883) MIC, Table 29, [R6W4] (IFX-318), antibiotics alone and PHY-MIX (1:1 w/w)): > 32 µg/mL; MIC ([2]; read-out: Pseudomonas aeruginosa (ATCC 27883) MIC, Table 30, [R5W4K] (IFX-315), antibiotics alone and PHY-MIX (1:1 w/w)): > 32 µg/mL; MIC ([3]; read-out: Klebsiella pneumoniae (ATCC BAA-1705) MIC, Table 28, IFX-031, antibiotics alone and PHY-MIX (1:1 w/w)): > 32 µg/mL; MIC ([3]; read-out: Klebsiella pneumoniae (ATCC BAA-1705) MIC, Table 29, [R6W4] (IFX-318), antibiotics alone and PHY-MIX (1:1 w/w)): > 32 µg/mL; MIC ([3]; read-out: Klebsiella pneumoniae (ATCC BAA-1705) MIC, Table 30, [R5W4K] (IFX-315), antibiotics alone and PHY-MIX (1:1 w/w)): > 32 µg/mL; MIC ([3]; read-out: Klebsiella pneumoniae (ATCC BAA-1705) MIC, Table 31, [R5W4] (IFX-301), antibiotics alone and PHY-MIX (1:1 w/w)): > 32 µg/mL; MIC ([4]; read-out: MRSA (ATCC BAA-1556) MIC, Table 28, IFX-031, antibiotics alone and PHY-MIX (1:1 w/w)): > 32 µg/mL; MIC ([4]; read-out: MRSA (ATCC BAA-1556) MIC, Table 31, [R5W4] (IFX-301), antibiotics alone and PHY-MIX (1:1 w/w)): > 32 µg/mL
2 |  |  |  |  |  |  |  |  |  |  |  | N=C(N)NCCC[C@@H]1NC(=O)[C@H](CCCNC(=N)N)NC(=O)[C@H](CCCNC(=N)N)NC(=O)[C@H](CCCNC(=N)N)NC(=O)[C@H](Cc2c[nH]c3ccccc23)NC(=O)[C@H](Cc2c[nH]c3ccccc23)NC(=O)[C@H](Cc2c[nH]c3ccccc23)NC(=O)[C@H](Cc2c[nH]c3ccccc23)NC(=O)[C@H](CCCNC(=N)N)NC(=O)[C@H](CCCNC(=N)N)NC(=O)[C@H](CCCNC(=N)N)NC1=O [[R7W4] (IFX-322)] (cyclo(RRRRRRRWWWW)) |  |  |  |  |  |  |  |  | MIC MRSA ATCC BAA-1556 (MRSA): 16 µg/mL (≈ 8.7 µM); MIC Klebsiella pneumoniae (ATCC BAA-1705) (KPC): 64 µg/mL (≈ 34.8 µM); MIC Pseudomonas aeruginosa (ATCC 27883) (PSA): 32 µg/mL (≈ 17.4 µM); MIC Escherichia coli (ATCC 25922) (E. coli): 32 µg/mL (≈ 17.4 µM)
3 |  |  |  |  |  |  |  |  |  |  |  | N=C(N)NCCC[C@@H]1NC(=O)[C@H](CCCNC(=N)N)NC(=O)[C@H](CCCNC(=N)N)NC(=O)[C@H](Cc2c[nH]c3ccccc23)NC(=O)[C@H](Cc2c[nH]c3ccccc23)NC(=O)[C@H](Cc2c[nH]c3ccccc23)NC(=O)[C@H](Cc2c[nH]c3ccccc23)NC(=O)[C@H](CCCNC(=N)N)NC(=O)[C@H](CCCNC(=N)N)NC1=O [[R5W4] IFX-301] |  |  |  |  |  |  |  |  | MIC (KPC): 32 µg/mL (≈ 21 µM); MIC (PSA): 32 µg/mL (≈ 21 µM); MIC (E. coli): 16 µg/mL (≈ 10.5 µM)
4 | 325 | 12.5 (≈ 10.3 µM) | 12.5 (≈ 10.3 µM) | 25 (≈ 20.6 µM) | 6.2 (≈ 5.1 µM) | 25 (≈ 20.6 µM) | 6.2 (≈ 5.1 µM) | 50 (≈ 41.1 µM) | 6.2 (≈ 5.1 µM) | 50 (≈ 41.1 µM) | 50 (≈ 41.1 µM) | N=C(N)NCCC[C@@H]1NC(=O)[C@H](CCCNC(=N)N)NC(=O)[C@H](Cc2ccc3ccccc3c2)NC(=O)[C@H](Cc2ccc3ccccc3c2)NC(=O)[C@H](CCCNC(=N)N)NC(=O)[C@H](CCCNC(=N)N)NC(=O)[C@H](Cc2ccc3ccccc3c2)NC1=O [IFX-019, c[Arg-Arg-NaI-NaI-Arg-Arg-NaI]] (cyclo(R[2Nal]RR[2Nal][2Nal]R)) | 1.5 | 12.5 | 25 | 3.1 | 6.2 | 1.5 | 1.5 | 1.5 | 
5 | 205 | 25 (≈ 22 µM) | 25 (≈ 22 µM) | 12.5 (≈ 11 µM) | 25 (≈ 22 µM) | 50 (≈ 43.9 µM) | 3.1 (≈ 2.72 µM) | 12.5 (≈ 11 µM) | 3.1 (≈ 2.72 µM) | 12.5 (≈ 11 µM) | 50 (≈ 43.9 µM) | N=C(N)NCCC[C@@H]1NC(=O)[C@H](CCCNC(=N)N)NC(=O)[C@H](C(c2ccccc2)c2ccccc2)NC(=O)[C@H](C(c2ccccc2)c2ccccc2)NC(=O)[C@H](C(c2ccccc2)c2ccccc2)NC(=O)[C@H](CCCNC(=N)N)NC1=O [IFX-002, c[Arg-Arg-Arg-Dip-Dip-Dip]] (cyclo([Dip][Dip][Dip]RRR)) | 6.2 | 25 | 50 | 12.5 | 12.5 | 12.5 | 6.2 | 6.2 | 
